Results: patent US11572351B1, “Bis-Schiff base compositions and formulations” (Systima Technologies, Inc., priority 2016, dated 2023)

Key:
[1] = Melt viscosity versus temperature, parallel plate rheometer, temperature ramp; assay type: physicochemical; settings: ramp 2° C. per minute, strain 0.01%, 10.00 rad/s; processing window about 100° C. up to at least 200° C.
Experimental: (§1) In some embodiments, the chemical composition may have a low viscosity, such as below about 100,000 cP at temperatures below 170° C. The viscosity may be measured by rotational rheometry by acquiring viscosity versus temperature curves on a parallel plate rheometer, commercially available from TA Instruments (New Castle, Del.) at a controlled strain of 0.01% and an angular frequency of 10.00 radians per second (rad/s) by heating samples at a rate of 2° C. per minute to the isothermal temperature specified. In one or more embodiments, the chemical composition may have a melt viscosity of less than or equal to 500 cP at 125° C. as measured by rotation rheometry. In one or more embodiments, the chemical composition may have a melt viscosity of less than or equal to 100,000 cP at 125° C. as measured by rotation rheometry. For instance, the chemical composition may have a melt viscosity of from 10,000 to 100,000 cP, from 40,000 to 80,000 cP, or from 20,000 to 50,000 cP at 125° C. In some particular embodiments, the chemical composition may have an extremely low viscosity at less than 200° C., such as less than 500 cP. In some particular embodiments, the chemical composition may have a melt viscosity of from 100 to 500 cP, from 200 to 400 cP, or from 300 to 500 cP at 125° C. […]

[2] = Viscosity stability during 4 hour isothermal dwell at 120° C., parallel plate rheometer; assay type: physicochemical; settings: isothermal 120° C., viscosity stayed 150 to 200 cP
Experimental: as §1

Row | viscosity (melt flow viscosity) [1] | period of time of stable low melt viscosity [2] | Compound
1 | less than 1000 cP | at least 4 hours | C(=N\c1ccc(Oc2cccc(Oc3ccc(/N=C/c4ccco4)cc3)c2)cc1)/c1ccco1 [Example 1]
2 | less than 1000 cP | at least 4 hours | C(=N\c1cccc(Oc2cccc(Oc3cccc(/N=C/c4ccco4)c3)c2)c1)/c1ccco1 [Example 2]
